Test results as given in patent US6893846B2, “Primers for use in detecting beta-lactamases” (priority 1998, dated 2005).
Values after ≈ are worked out from the molar mass of the structure shown. Like-named read-outs stand apart in the source and are kept apart here.

Experiments:
[1] = test system: K. pneumoniae 225; assay: NCCLS microdilution susceptibility test; format: cell-based, Klebsiella pneumoniae; conditions: Klebsiella pneumoniae, 225
[2] = test system: K. pneumoniae; assay: Agar dilution MIC, South African isolates; format: cell-based, Klebsiella pneumoniae; conditions: tzp with tazobactam 4 μg/ml
Source text: The strains were provided in response to a request for all strains of Enterobacteriaceae, lacking inducible beta-lactamases, that were intermediate or resistant to cefotaxime or ceftazidime. […]

[3] = test system: E. aerogenes; format: cell-based, Enterobacter aerogenes
Procedure: Antibiotic susceptibilities were determined by standard disk-diffusion (NCCLS Standard M2-A6) and agar-dilution (NCCLS Standard M7-A4) procedures. Disks were obtained from Becton Dickinson Microbiology Systems (Cockeysville, Md.). […] Throughout this study, results were interpreted using NCCLS criteria for disk diffusion (NCCLS M2-A6) and broth dilution (NCCLS M7-A4).

[4] = test system: E. aerogenes; assay: Double-disk potentiation test; format: cell-based, Enterobacter aerogenes; conditions: all the E. aerogenes strains selected; potentiation by clavulanic acid
Source text: This test described by Jarlier et al., Rev. Infect. Dis.

[5] = test system: E. coli C600N transconjugants; assay: Susceptibility of transconjugants; format: cell-based, Escherichia coli; conditions: E. coli C600N transconjugants of E. aerogenes 187, 200, 220, 184
Procedure: Antibiotic susceptibilities were determined by standard disk-diffusion (NCCLS Standard M2-A6) and agar-dilution (NCCLS Standard M7-A4) procedures. Disks were obtained from Becton Dickinson Microbiology Systems (Cockeysville, Md.). Disk-diffusion susceptibilities to the following antibiotics were determined, ampicillin; amoxicillin clavulanic acid; aztreonam; cefazolin; cefoxitin; cefuroxime; cefotaxime; ceftriaxone; ceftazidime; cefepime; imipenem; gentamicin; trimethoprim/sulfamethoxazole and ciprofloxacin. […] The following quality control strains were run simultaneously with the test organisms Escherichia coli ATCC 25922, Pseudomonas aeruginosa ATCC 27853, and E. coli ATCC 35218. Throughout this study, results were interpreted using NCCLS criteria for disk diffusion (NCCLS M2-A6) and broth dilution (NCCLS M7-A4).
[…]. The filter paper mating technique with overnight incubation at 37° C. were performed as described previously (Philippon et al., Antimicrob. Agents Chemother., 33:1131-1136 (1989)). Transconjugants were selected on LB (Luria Bertani) agar [Difco (Detroit, Mich.)] plates containing 12 μg per ml nalidixic acid and 20 μg per ml ampicillin.

[6] = test system: E. coli HB101 transformant (17 kb plasmid); conditions: disk diffusion, Tr (17 kb) = transformant E. coli HB101
[7] = test system: K. pneumoniae 225; conditions: test drug disk around amoxicillin-clavulanate disk
[8] = target: beta-lactamases in sonic extracts of K. pneumoniae (Escherichia coli, UniProt P62593); conditions: 0.75 μg/ml cefotaxime
[9] = target: beta-lactamases in sonic extracts of K. pneumoniae (Klebsiella pneumoniae, UniProt P0AD64); conditions: Kpn1, beta-lactamase pI 7.6 (SHV-1); 0.75 μg/ml cefotaxime
[10] = target: beta-lactamases in sonic extracts of K. pneumoniae (Klebsiella pneumoniae, UniProt P0AD64, E235K/G234S); conditions: Kpn2, beta-lactamase pI 8.2 (SHV-5); 0.75 μg/ml cefotaxime
[11] = test system: beta-lactamases in sonic extracts of K. pneumoniae; conditions: 0.75 μg/ml cefotaxime
[12] = target: beta-lactamases in sonic extracts of E. coli (Escherichia coli, UniProt P62593); assay: Isoelectric focusing overlay: cefotaxime hydrolysis and inhibitors; conditions: 0.75 μg/ml cefotaxime
[13] = test system: beta-lactamases in sonic extracts of E. coli; assay: as above; conditions: 0.75 μg/ml cefotaxime
[14] = target: beta-lactamases in sonic extracts of P. mirabilis (Escherichia coli, UniProt P62593, E102K/R162S); assay: as above; conditions: beta-lactamase pI 5.6 (TEM-10 or 26), 0.75 μg/ml cefotaxime
[15] = target: single beta-lactamase in K. pneumoniae cell extracts (Escherichia coli, UniProt P62593, E102K/R162S); assay: Spectrophotometric hydrolysis assay on crude beta-lactamase extracts; conditions: K. pneumoniae Pit 16 extract, beta-lactamase pI 5.6; 100 μM substrate
[16] = target: single beta-lactamase in K. pneumoniae cell extracts (Klebsiella pneumoniae, UniProt P0AD64, E235K/G234S); assay: as above; conditions: K. pneumoniae Pit 82 extract, beta-lactamase pI 8.2; 100 μM substrate
[17] = target: single beta-lactamase in K. pneumoniae cell extracts (Klebsiella pneumoniae, UniProt P0AD64, G234S); assay: as above; conditions: K. pneumoniae Pit 100 extract, beta-lactamase pI 7.6; 100 μM substrate
[18] = target: single beta-lactamase in E. coli cell extracts (Escherichia coli, UniProt P62593, E102K/R162S); assay: as above; conditions: E. coli Pit 64 extract, beta-lactamase pI 5.6; 100 μM substrate
[19] = target: single beta-lactamase in P. mirabilis cell extracts (Escherichia coli, UniProt P62593, E102K/R162S); assay: as above; conditions: P. mirabilis Pit 85 extract, beta-lactamase pI 5.6; 100 μM substrate

Structure (SMILES): CO/N=C(\C(=O)N[C@@H]1C(=O)N2C(C(=O)O)=C(COC(C)=O)CS[C@H]12)c1csc(N)n1 [cefotaxime]
- MIC [1]: 16 µg/mL (≈ 35.1 µM)
- MIC range ([2]; resistance phenotype Kpn1, 8 strains): 0.25 to 1 µg/mL
- MIC range ([2]; resistance phenotype Kpn2, 28 strains): 4 to 64 µg/mL
- MIC range ([2]; resistance phenotype Kpn3 (K. pneumoniae Pit 68), 1 strain, listed as ctx): 4 µg/mL
- MIC range ([3]; 1 E. aerogenes strain with Bush group 1 and group 2be (SHV-3) enzymes): 1 µg/mL (≈ 2.2 µM)
- MIC range ([3]; 1 E. aerogenes strain with Bush group 1 and group 2be (SHV-5) enzymes): 1 to 2 µg/mL
- MIC range ([3]; 29 E. aerogenes strains with Bush group 1 and group 2be (SHV-4) enzymes): 1 to 2 µg/mL
- susceptibility by MIC ([3]; all E. aerogenes strains): decreased susceptibility
- double disk test [4]: positive
- susceptibility after transfer of plasmids encoding SHV beta-lactamase genes [5]: decreased susceptibility
- Zone Size [6]: 34 mm
- clavulanate double-disk potentiation test [7]: positive
- ctx hydrolysis ([8]; Kpn2, beta-lactamase pI 5.4 (TEM-1)): No
- ctx hydrolysis ([8]; Kpn3, beta-lactamase pI 5.4 (TEM-1)): No
- ctx hydrolysis [9]: No
- ctx hydrolysis [10]: Yes
- ctx hydrolysis ([11]; Kpn1, beta-lactamase pI 5.6 (TEM-10 or 26)): Yes
- ctx hydrolysis ([11]; Kpn2, beta-lactamase pI 7.6 (SHV-2 or 8)): Yes
- ctx hydrolysis ([11]; Kpn3, beta-lactamase pI 8.0 (AmpC)): Yes
- ctx hydrolysis ([12]; Ec1, beta-lactamase pI 5.4 (TEM-1)): No
- ctx hydrolysis ([12]; Ec2, beta-lactamase pI 5.4 (TEM-1)): No
- ctx hydrolysis ([13]; Ec1, beta-lactamase pI 5.6 (TEM-10 or 26)): Yes
- ctx hydrolysis ([13]; Ec2, beta-lactamase pI 7.6 (SHV-2 or 8)): Yes
- ctx hydrolysis [14]: Yes
- Hydrolysis [15]: 4 nmol of substrate hydrolyzed/m
- Hydrolysis [16]: 11 nmol of substrate hydrolyzed/m
- Hydrolysis [17]: 11 nmol of substrate hydrolyzed/m
- Hydrolysis [18]: 1 nmol of substrate hydrolyzed/m
- Hydrolysis [19]: 5 nmol of substrate hydrolyzed/m
